The subject of one series is RAW 264.7 cells. Description: Cell viability (MTT) in the presence of LPS. Conditions: RAW 264.7, 100 ng/mL LPS, 24 h, MTT.
The test system of series [1] is LPS-induced iNOS-dependent NO production in RAW 264.7 cells. Description: Inhibition of LPS-induced iNOS-dependent NO production (Griess nitrite assay). Type of series: cell-based, murine. Particulars: RAW 264.7, 100 ng/mL LPS, 24 h; for NO level: nitrite by Griess, in µM (unit assumed). From the text:
The isolated compounds 1–9 were subjected into the examination of their effects on LPS-induced iNOS-dependent NO production in RAW 264.7 cells. […] The inhibitory effects of 1, 4 and 9 were less obvious. […] Among the tested compounds, 2, and 5–8 belonged to the ent-kaurane diterpenoids noted for the occurrence in the Annona species.
NO production was indirectly assessed by measuring the nitrite levels in the cultured media and serum determined by a colorimetric method based on the Griess reaction. The cells were incubated with a test sample in the presence of LPS (100 ng/mL) at 37 °C for 24 h. Then, cells were dispensed into 96-well plates, and 100 μL of each supernatant was mixed with the same volume of Griess reagent (1% sulfanilamide, 0.1% naphthyl ethylenediamine dihydrochloride, and 5% phosphoric acid) and incubated at room temperature for 10 min, the absorbance was measured at 540 nm with a Micro-Reader (Molecular Devices). By using sodium nitrite to generate a standard curve, the concentration of nitrite was measured form absorbance at 540 nm.
Experimental results were presented as the mean ± standard deviation (SD) of three parallel measurements. Statistical comparisons were made by Student’s t-test. IC50 values were estimated using a non-linear regression algorithm (SigmaPlot 8.0; SPSS Inc. Chicago, IL, USA). Statistical significance is expressed as * p < 0.05, ** p < 0.01, and *** p < 0.001.

For a further series, the system named is macrophages. Also on record: method as in PMID 23333629. Conditions: by interfering with the activation of TAK1 and Akt, preventing NF-κB activation; cited from earlier work.

`CC1(C)CC[C@]2(C)CC=C3[C@]4(C)CC[C@H]5C(C)(C)[C@@H](O)CC[C@]5(C)[C@H]4CC[C@@]3(C)[C@@H]2C1` [Compound 3, taraxerol]: the “Cell viability (% of control)” value in the series on RAW 264.7 cells (12.5 μM) is listed as 93.5 ± 1.8 % of control; with RAW 264.7 cells (25 μM) it was 92.6 ± 3.1 % of control; in the series with RAW 264.7 cells (50 μM), 88.7 ± 1.8 % of control; in the series on RAW 264.7 cells (100 μM) it was 81.4 ± 2.3 % of control. Besides, the NO level in series [1] (12.5 μM) is 38.5 ± 2.3; in series [1] (25 μM), 39.5 ± 0.6; in series [1] (50 μM), 35.6 ± 0.9; in series [1] (100 μM), 22.6 ± 0.4. Further, in series [1] (Mus musculus, RAW264.7, 12.5 μM, read-out: NO inhibition (% of control)), the inhibition at 12.5 µM was 15.2 ± 5%. For the same molecule, the inhibition at 25 µM in series [1] (Mus musculus, RAW264.7, 25 μM, read-out: NO inhibition (% of control) (converted)) was 13.1%. Besides, the inhibition at 50 µM in series [1] (Mus musculus, RAW264.7, 50 μM, read-out: NO inhibition (% of control) (converted)) is 21.6%. For the same molecule, the inhibition at 100 µM in series [1] (Mus musculus, RAW264.7, 100 μM, read-out: NO inhibition (% of control) (converted)) is 50.1%. In series [1] (Mus musculus, RAW264.7), this molecule came in with a half-maximal inhibitory concentration (IC50) of 99.8 ± 0.4 µM. The “Expression of proinflammatory mediators (in words)” value in the series with macrophages was “downregulate the expression of proinflammatory mediators”.
